Measurements published in ChEMBL document CHEMBL5512674, “Novel Acyl Thiourea-Based Hydrophobic Tagging Degraders Exert Potent Anti-Influenza Activity through Two Distinct Endonuclease Polymerase Acidic-Targeted Degradation Pathways” (J Med Chem, 2024).
The source made the active and inactive calls. No cut-off for these calls is given here.

What was measured:
Influenza A virus [1] = experiment: Anti-influenza activity against Influenza A virus A/WSN/33(H1N1) infected in HEK293T cells assessed as reduction in virus-induced cytopathic effect incubated for 48 hrs by CCK-8 assay; type: functional, organism-based; settings: HEK-293T
[2] = Cytotoxicity against human HEK293T cells assessed as reduction in cell viability incubated for 48 hrs by CCK-8 assay; type: toxicity, cell-based, HEK-293T
[3] = Selectivity index, ratio of CC50 for cytotoxicity against human HEK293T cells to EC50 for anti-influenza activity against Influenza A virus A/WSN/33(H1N1) infected in HEK293T cells assessed as reduction in virus-induced cytopathic effect; type: toxicity, cell-based; settings: read-out: Ratio CC50/EC50
Influenza B virus = experiment: Anti-influenza activity against Influenza B virus Yamagata/16/88 infected in HEK293T cells assessed as reduction in virus-induced cytopathic effect incubated for 48 hrs by CCK-8 assay; type: functional, organism-based; settings: Yamagata/16/88, HEK-293T
Influenza A virus [4] = experiment: Anti-influenza activity against Influenza A virus H3N2 infected in HEK293T cells assessed as reduction in virus-induced cytopathic effect incubated for 48 hrs by CCK-8 assay; type: functional, organism-based; settings: H3N2, HEK-293T
[5] = Intrinsic clearance in mouse liver microsomes preincubated for 5 mins followed by NADPH addition and measured for 45 mins by LC-MS analysis; type: ADME, Microsome; settings: time 50 min, read-out: CLH
[6] = Intrinsic clearance in dog liver microsomes preincubated for 5 mins followed by NADPH addition and measured for 45 mins by LC-MS analysis; type: ADME, Canis lupus familiaris, Microsome; settings: time 50 min, read-out: CLH
[7] = Hepatic clearance in mouse liver microsomes preincubated for 5 mins followed by NADPH addition and measured for 45 mins by LC-MS analysis; type: ADME, Microsome; settings: time 50 min
[8] = Hepatic clearance in dog liver microsomes preincubated for 5 mins followed by NADPH addition and measured for 45 mins by LC-MS analysis; type: ADME, Canis lupus familiaris, Microsome; settings: time 50 min
[9] = Hepatic clearance in human liver microsomes preincubated for 5 mins followed by NADPH addition and measured for 45 mins by LC-MS analysis; type: ADME, Microsome; settings: time 50 min
[10] = Hepatic extraction ratio in mouse liver microsomes preincubated for 5 mins followed by NADPH addition and measured for 45 mins by LC-MS analysis; type: ADME, Microsome; settings: time 50 min, read-out: ERH
[11] = Stability in human plasma assessed as compound remaining measured after 5 mins by LC-MS/MS analysis; type: ADME, cell-free; settings: read-out: Stability
[12] = Stability in human plasma assessed as compound remaining measured after 120 mins by LC-MS/MS analysis; type: ADME, cell-free; settings: read-out: Stability
[13] = Half life in human plasma by LC-MS/MS analysis; type: ADME, cell-free
[14] = target: T1, von Hippel-Lindau disease tumor suppressor/Polymerase basic protein 1 (Influenza A virus (strain A/Puerto Rico/8/1934 H1N1)) (UniProt P03431+P40337); experiment: PROTAC activity at Influenza A virus A/WSN/33(H1N1) flag tagged Polymerase basic protein 1/VHL (unknown origin) expressed in HEK293T cells assessed as degradation of PB1 expression at 1 ug/ml incubated for 24 hrs by Western blotting analysis; type: cell-based; settings: dose 1.0 µg/ml
[15] = target: T2, von Hippel-Lindau disease tumor suppressor/Polymerase basic protein 2 (Influenza A virus (strain A/Puerto Rico/8/1934 H1N1)) (UniProt P40337+P03428); experiment: PROTAC activity at Influenza A virus A/WSN/33(H1N1) flag tagged Polymerase basic protein 2/VHL (unknown origin) expressed in HEK293T cells assessed as degradation of PB2 expression at 1 ug/ml incubated for 24 hrs by Western blotting analysis; type: cell-based; settings: dose 1.0 µg/ml
[16] = target: T3, von Hippel-Lindau disease tumor suppressor/Polymerase acidic protein (Influenza A virus (A/Puerto Rico/8/1934(H1N1))) (UniProt P03433+P40337); experiment: PROTAC activity at Influenza A virus A/WSN/33(H1N1) flag tagged Polymerase acidic protein/VHL (unknown origin) expressed in HEK293T cells assessed as degradation of PA expression at 10 uM incubated for 24 hrs by Western blotting analysis; type: cell-based
[17] = target: T3, von Hippel-Lindau disease tumor suppressor/Polymerase acidic protein (Influenza A virus (A/Puerto Rico/8/1934(H1N1))); experiment: PROTAC activity at Influenza A virus A/WSN/33(H1N1) flag tagged Polymerase acidic protein/VHL (unknown origin) expressed in HEK293T cells assessed as degradation of PA expression at 0.02 to 10 uM incubated for 24 hrs by Western blotting analysis; type: cell-based; settings: dose 0.02-10 µM
[18] = target: T1, von Hippel-Lindau disease tumor suppressor/Polymerase basic protein 1 (Influenza A virus (strain A/Puerto Rico/8/1934 H1N1)); experiment: PROTAC activity at Influenza A virus A/WSN/33(H1N1) flag tagged Polymerase basic protein 1/VHL (unknown origin) expressed in HEK293T cells assessed as degradation of PB1 expression at 0.1 to 10 uM incubated for 24 hrs by Western blotting analysis; type: cell-based; settings: dose 0.1-10 µM
[19] = target: T2, von Hippel-Lindau disease tumor suppressor/Polymerase basic protein 2 (Influenza A virus (strain A/Puerto Rico/8/1934 H1N1)); experiment: PROTAC activity at Influenza A virus A/WSN/33(H1N1) flag tagged Polymerase basic protein 2/VHL (unknown origin) expressed in HEK293T cells assessed as degradation of PB2 expression at 0.1 to 10 uM incubated for 24 hrs by Western blotting analysis; type: cell-based; settings: dose 0.1-10 µM
[20] = target: T3, von Hippel-Lindau disease tumor suppressor/Polymerase acidic protein (Influenza A virus (A/Puerto Rico/8/1934(H1N1))); experiment: PROTAC activity at Influenza A virus A/WSN/33(H1N1) flag tagged Polymerase acidic protein/VHL (unknown origin) expressed in HEK293T cells assessed as degradation of PA expression at 10 uM by Western blotting analysis; type: cell-based; settings: TDE = time-dependent effect
[21] = target: T3, von Hippel-Lindau disease tumor suppressor/Polymerase acidic protein (Influenza A virus (A/Puerto Rico/8/1934(H1N1))); experiment: PROTAC activity at Influenza A virus A/WSN/33(H1N1) flag tagged Polymerase acidic protein/VHL (unknown origin) expressed in HEK293T cells assessed as degradation of PA expression at 10 uM incubated for 72 hrs by Western blotting analysis; type: cell-based
[22] = target: T3, von Hippel-Lindau disease tumor suppressor/Polymerase acidic protein (Influenza A virus (A/Puerto Rico/8/1934(H1N1))); experiment: PROTAC activity at Influenza A virus A/WSN/33(H1N1) flag tagged Polymerase acidic protein/VHL (unknown origin) expressed in HEK293T cells assessed as degradation of PA expression at 5 uM incubated for 24 hrs by Western blotting analysis; type: cell-based
[23] = target: T3, von Hippel-Lindau disease tumor suppressor/Polymerase acidic protein (Influenza A virus (A/Puerto Rico/8/1934(H1N1))); experiment: PROTAC activity at Influenza A virus A/WSN/33(H1N1) flag tagged Polymerase acidic protein/VHL (unknown origin) expressed in HEK293T cells assessed as degradation of PA expression at 5 uM incubated for 24 hrs in presence of dipeptide RA by Western blotting analysis; type: cell-based
[24] = target: T3, von Hippel-Lindau disease tumor suppressor/Polymerase acidic protein (Influenza A virus (A/Puerto Rico/8/1934(H1N1))); experiment: PROTAC activity at Influenza A virus A/WSN/33(H1N1) flag tagged Polymerase acidic protein/VHL (unknown origin) expressed in HEK293T cells assessed as degradation of PA expression at 5 uM incubated for 24 hrs in presence of bortezomib by Western blotting analysis; type: cell-based
[25] = target: T3, von Hippel-Lindau disease tumor suppressor/Polymerase acidic protein (Influenza A virus (A/Puerto Rico/8/1934(H1N1))); experiment: PROTAC activity at Influenza A virus A/WSN/33(H1N1) flag tagged Polymerase acidic protein/VHL (unknown origin) expressed in HEK293T cells assessed as degradation of PA expression at 5 uM incubated for 24 hrs in presence of 3-methyladenine by Western blotting analysis; type: cell-based
Influenza A virus [26] = experiment: Anti-influenza activity against Influenza A virus A/PR/8/34 (H1N1) infected in MDCK cells assessed as inhibition of viral growth at 1 uM incubated for 48 hrs by luciferase assay relative to control; type: functional
Influenza A virus [27] = experiment: Anti-influenza activity against Influenza A virus A/PR/8/34 (H1N1) infected in MDCK cells assessed as inhibition of viral growth at 0.8 nM incubated for 48 hrs by luciferase assay relative to control; type: functional
Enterovirus = experiment: Antiviral activity against Enterovirus 71 infected in RD cells assessed as inhibition of viral replication incubated for 24 hrs by CCK-8 assay; type: functional, organism-based

CC(C)(C)OC(=O)NCCCC[C@H](NC(=O)OC(C)(C)C)C(=O)NCCCCCCCC(=O)Nc1ccc(NC(=S)NC(=O)c2ccc(C(C)(C)C)cc2)cc1
EC50 (Influenza A virus [1]): 15 nM | CC50 at 48 h [2]: > 100000 nM | selectivity ratio [3]: > 6670 | EC50 (Influenza B virus): 73 nM | EC50 (Influenza A virus [4]): 36 nM | CLint scaled [5]: 170 mL/min/kg | CLint scaled [6]: 177 mL/min/kg | CLhep predicted [7]: 58.8 mL/min/kg | CLhep predicted [8]: 26.3 mL/min/kg | CLhep predicted [9]: 18 mL/min/kg | hepatic extraction ratio at 0.75 h [10]: 0.654 | remaining at 5 min [11]: 96.8% | remaining at 2 h [12]: 72% | half-life [13]: 4.09 h | Activity [14]: inactive | Activity [15]: inactive | Activity [16]: Active | Activity [17]: Active | Activity [18]: inactive | Activity [19]: inactive | Activity [20]: Tde | Activity [21]: Active | Activity [22]: Active | Activity [23]: inactive | Activity [24]: inactive | Activity [25]: inactive | inhibition at 1 µM (Influenza A virus [26]): 96% | inhibition at 0.0008 µM (Influenza A virus [27]): 82% | Activity (Enterovirus): Active
